# Laboratory results as given in patent US20200182861A1, “METHOD FOR DIFFERENTIATION OF PLURIPOTENT STEM CELLS INTO VASCULAR BED CELLS” (Hoffmann-La Roche Inc., priority 2011, published 2020).
# B1: Wnt3a: Wnt3a added to the priming medium (protein, UniProt P56704 19-352, looked up)
# Protein Wnt-3a: SYPIWWSLAVGPQYSSLGSQPILCASIPGLVPKQLRFCRNYVEIMPSVAEGIKIGIQECQHQFRGRRWNCTTVHDSLAIFGPVLDKATRESAFVHAIASAGVAFAVTRSCAEGTAAICGCSSRHQGSPGKGWKWGGCSEDIEFGGMVSREFADARENRPDARSAMNRHNNEAGRQAIASHMHLKCKCHGLSGSCEVKTCWWSQPDFRAIGDFLKDKYDSASEMVVEKHRESRGWVETLRPRYTYFKVPTERDLVYYEASPNFCEPNPETGSFGTRDRTCNVSSHGIDGCDLLCCGRGHNARAERRREKCRCVFHWCCYVSCQECTRVYDVHTCK
# How the values were obtained:
# hESCs = experiment: Direct comparison BIO versus CP21R7 to differentiate hESCs into CD144+ endothelial cells; format: cell-based, human
# Protocol: FIG. 6: Direct comparison BIO versus CP21R7 to differentiate hESCs into endothelial cells CD144+. hESCs have been differentiated in monolayer conditions in parallel using different concentrations at Day 1 (0 μM, 0.5 μM, 1 μM, 2 μM) for the BIO or for the COMPOUND 21 (CP21R7) as supplement to the carrier medium N2B27, followed at Day 4 with induction medium VEGF-A 50 ng/ml and Forskolin 5 μM for all the conditions.
# The method of Tatsumi et al employs the BIO inhibitor at different concentrations as supplement to the N2B27. Although Tatsumi et al. describes that the pluripotent stem cells were differentiated to endothelial cells with about 20% efficiency (determined by endothelial cells expressing the surface marker CD144), we were not able to reproduce such results.
# human PSCs = experiment: Endothelial induction by GSK3 inhibitors, flow cytometric VE-Cadherin (CD144) expression on day 5; format: cell-based
# Protocol: (§1) The potential of the most widely used commercial GSK30 inhibitors and CP21R7 to activate β-catenin-mediated TCF/LEF transcription in human PA-1 reporter cells (DeAlmeida et al., 2007) was evaluated. […] Unmodified PA-1 cells are used to measure cellular viability via ATP levels and GLI-luciferase responsive reporter PA-1 cells as counter screen to monitor changes in general transcriptional activity. […] On the outcome of the β-Catenin reporter assay, three GSk3β inhibitors namely BIO, CHIR and CP were exploited for their potential to drive vascular lineage commitment of human PSCs. In addition to the listed inhibitors we include SB216763 (SB) due to its structure similarity to CP (see FIG. 18). Pluripotent stem cells were (i) plated as single-cells on mTeSR1 medium supplemented with Y-27632 a Rho-kinase inhibitor (Watanabe et al., 2007); (ii) incubated in priming medium (N2B27 medium supplemented with a GSK303 inhibitor) and (iii) incubated in induction medium (StemPro SFM 34 medium supplemented with Vascular Endothelial Growth Factor (VEGF; Sumi et al., 2008)) as outlined above under 1 (i) and (ii).
# The Following GSK3 Inhibitors were Used: CHIR99021 GSK3-Inhibitor: Catalogue Number: 361559 from Merck Millipore SB216763 GSK3-Inhibitor: Catalogue Number: 361566 from Merck Millipore BIO GSK3-Inhibitor: Catalogue Number: 3 361550 from Merck Millipore CP21R7: 3-(3-Amino-phenyl)-4-(1-methyl-1H-indol-3-yl)-pyrrole-2,5-dione (also referred to as “compound 21” herein; see e.g. L. Gong et al; Bioorganic & Medicinal Chemistry Letters 20 (2010), 1693-1696).
# Proliferation into vascular bed cells was detected on Day 5. Vascular identity is confirmed by the expression of vascular endothelial-cadherin (VE-Cadherin). The capability to induce vascular bed cells was determined by VE-Cadherin (CD144) expression on day 5 (FIG. 19). […] Remarkably, up to 35% of cells expressed CD144 at an optimal concentration of 1 μM from day five on. […] CHIR, which has a divergent chemical structure than CP induced CD144 expression also in a parabolic curve reaching an optimum at 6 μM. […] Although, SB and CP share the same chemical backbone, divergent moieties may influence the chemical properties, e.g. cellular permeability or solubility. In carrier treated cells no VE-CADHERIN expression was detected (FIG. 19).
# [1] = system: β-catenin-mediated TCF/LEF transcription; experiment: TCF/LEF reporter assay in human PA-1 reporter cells; format: cell-based; settings: for dose-response activation curve: dose-response assay
# Protocol: FIG. 19: Compound selection. TCF/LEF reporter assay in human PA-1 reporter cells (DeAlmeida et al., 2007). After the treatment of reporter cells with GSk3 inhibitors at indicated concentrations β-catenin-mediated TCF/LEF transcriptional activity was measured as luciferase activity. The Compound Cp21R7 induced highest luciferase activity at a concentration of 3 μM.
# as §1
# [2] = system: GLI-luciferase responsive reporter PA-1 cells; experiment: GLI-luciferase responsive reporter PA-1 cells counter screen (general transcriptional activity); format: cell-based, human
# Protocol: as §1
# Unmodified PA-1 cells = experiment: Cellular viability via ATP levels in unmodified PA-1 cells; format: cell-based, human
# Protocol: as §1
# [3] = system: human embryonic stem cell; settings: 5 μM 3 days, then VEGF 2 days; Tatsumi et al.; cited from earlier work
# [4] = system: Human Embryonic Stem cells; experiment: Quantification of CD144+ stem cell-derived endothelial cells by image based high content analysis
# Protocol: FIG. 2A: Quantification CD144+ Stem Cell-Derived Endothelial Cells by image based high content analysis (HCA). Human Embryonic Stem cells have been differentiated in monolayer conditions with different small molecules. Upper and middle panel: Day 1 priming medium with different compounds; Day 4 induction medium+VEGF-A 50 ng/ml. Carrier N2B27 alone (upper panel, left); Wnt3a 150 ng/ml added to the priming medium (upper panel, right); SB216763 6 μM added to the priming medium (middle panel, left), CHIR 9902 2 μM added to the priming medium (middle panel, right). Lower panels: Day 1 priming medium with 2 μM Compound 21 (CP21R7); Day 4 induction medium+VEGF-A 50 ng/ml (lower panel, left) and Day 4 induction medium+VEGF-A 50 ng/ml+Forskolin 5 μM (lower panel, right). DAPI (cell nuclei) CD144 (membrane staining).
# FIG. 2B: Quantification graph: Percent CD144+ positive cells.
# (§2) Before the enzymatic dissociation of hPSC colonies using StemPro Accutase (Invitrogen) cells are preincubated for one hour with 10 μM ROCK-Inhibitor Y27632. 35.000 single hPSCs per cm^2 are plated onto growth factor reduced Matrigel (BD bioscience) coated cell culture plates in TeSR2 medium supplemented with 10 μM ROCK-Inhibitor. On day1 attachment medium is exchanged to N2B27 (Gibco) medium supplemented with (a) 2 μM Compound 21 (CP21R7) or (b) 1 μM Compound 21 (CP21R7) and 25 ng/ml BMP4 (R&D Systems). Cells are cultivated for additional 3 days without media change.
# (§3) On day 4 priming medium is replaced with StemPro-34 SFM medium (Invitrogen) supplemented with (a) 50 ng/ml VEGF and 5 μM Forskolin or (b) 200 ng/ml VEGF and 2 μM Forskolin. On day 5 induction medium is withdrawn and cells are used for MACS separation of CD144+ cells.
# pluripotent stem cells [5] = experiment: Flow cytometry of CD144+ endothelial cells after monolayer differentiation; format: cell-based, human
# Protocol: FIG. 3: Flow Cytometry analysis of the pluripotent stem cell-derived CD144+ endothelial cells. Endothelial cells differentiated in monolayer conditions (priming medium 2 μM CP21R7, induction medium VEGF-A 50 ng/ml and Forskolin 5 μM) were analyzed before and after MACS sorting for the CD144+ expression. Before MACS Sorting 32.5% CD144+ endothelial cells and after MACS sorting 96.5% CD144+ endothelial cells.
# as §2, §3
# PSCs [6] = experiment: Immunostainings of differentiation markers over time; format: cell-based, human
# From the text: Immunostainings of SOX17, OCT4, T-BRACHYURY, PECAM-1 and VE-CADHERIN support the transcriptome data (Quantification shown in FIG. 9). The protein expression of the pan-mesodermal marker T-BRACHYURY confirms an intermediate PS-like cell stage. […] The vast majority of cells reached a T-BRACHYURY peak expression on day three. On day four the expression diminished and disappeared, thereby mimicking its specific embryonic expression pattern (Tam and Loebel, 2007). Loss of pluripotency was monitored by the time-dependent decline of OCT4 expression. […] Induction of endothelial cell identity was determined by the co-expression of platelet-endothelial cell adhesion molecule-1 (PECAM1) and VE-CADHERIN. Endothelial marker expression was detected upon administration of VEGF on day 4 (FIG. 9). […] Our differentiation system enables high throughput derivation of endothelial cells within 5 days through a transient emergence of primitive streak cells.
# PSCs [7] = experiment: Genome-wide gene expression analysis during differentiation; format: cell-based, human
# pluripotent stem cells [8] = experiment: VSMC induction, flow cytometric CD31/CD140b distribution; format: cell-based, human; settings: induction medium replaced by RPMI medium with 0.5 μM IWR
# From the text: Cell types differed by morphology as well as by marker expression. Cobblestone-like cells with tight cell-cell contacts expressed the endothelial-specific marker VE-Cadherin. Flattened and spindle-like shaped cells stained positive for Smooth Muscle Actin (αSMA), indicating a vascular smooth muscle cell (VSMC) identity. In flow cytometric analysis cells separated into a major fraction of CD31^+/CD140^+ cells and minor fraction of CD31^−/CD140b^+ cells (FIG. 10).
# SC-derived ECs = experiment: Tube formation assay of SC-derived ECs on Matrigel matrix; format: cell-based, human; settings: data not shown
# Protocol: In order to define the endothelial phenotype more profoundly, the angiogenic potential, the ability to uptake DiI-acetylated low-density lipoprotein (DiI-ac-LDL) was assessed and the dynamic modulation of the barrier function was monitored. For tube formation assays SC-derived ECs were seeded onto a Matrigel matrix.
molecule,measurement,setting,value
"O=C1Nc2cc(Br)ccc2/C1=C1/Nc2ccccc2/C1=N\O [BIO, (2′Z, 3′E)-6-bromoindirubin-3′-oxime]",maximum expression of the CD144,"hESCs; 0.5 μM at Day 1 in N2B27, induction medium VEGF-A 50 ng/ml and Forskolin 5 μM",5%
same,cytotoxicity,hESCs; already at concentrations of 1 μM,strong cytotoxicity
same,toxicity to the cells,"hESCs; the other concentrations (1 μM, 2 μM)",toxic to the cells
same,toxicity on single cells,human PSCs; data not shown,toxic on single cells
same,dose-response activation curve,[1],steep activation curve
same,GLI-mediated luciferase activity,[2]; data not shown,three-fold increase
same,toxicity,"Unmodified PA-1 cells; concentration of 10 μM, data not shown",highly toxic
same,efficiency determined by endothelial cells expressing the surface marker CD144,[3],about 20%
"Cn1cc(C2=C(c3cccc(N)c3)C(=O)NC2=O)c2ccccc21 [CP21R7, 3-(3-Amino-phenyl)-4-(1-methyl-1H-indol-3-yl)-pyrrole-2,5-dione]",CD144+ cells,"[4]; 2 μM added to the priming medium, day 4 induction medium + VEGF-A 50 ng/ml",40.2%
same,CD144+ cells,"[4]; 2 μM added to the priming medium, induction medium + VEGF-A 50 ng/ml + Forskolin 5 μM",54.6%
same,CD144 expression,"hESCs; dose response 0.5 μM, 1 μM, 2 μM, induction VEGF-A 50 ng/ml and Forskolin 5 μM",up to 35%
same,optimal concentration for CD144 expression,"human PSCs; bell-shaped / parabolic curve, day 5",1 µM
same,cells expressed CD144,"human PSCs; optimal concentration of 1 μM, from day five on",up to 35%
same,maximum increased luciferase activity,[1]; at 3 μM,566 fold
same,concentration of highest luciferase activity,[1]; bell-shaped curve,3 µM
same,dose-response activation curve,[1],steep activation curve
same,general transcriptional activity,[2],minor increases of general transcriptional activity
same,cell proliferation,Unmodified PA-1 cells; at maximum luciferase activity,only a modest gain of cell proliferation
same,"CD144 expression, cells on day six","pluripotent stem cells [5]; priming 1 μM CP with 25 ng/ml BMP4, induction 200 ng/ml VEGF with 2 μM Forskolin",up to 85%
same,CD144+ endothelial cells before MACS sorting,"pluripotent stem cells [5]; priming medium 2 μM CP21R7, induction medium VEGF-A 50 ng/ml and Forskolin 5 μM",32.5%
same,SOX17+ cells,"PSCs [6]; CP21 alone, day three",salt and pepper staining pattern of SOX17^+ cells
same,SOX17+ cells,PSCs [6]; combined application of CP and BMP4,prevented the appearance of endodermal SOX17^+ cells
same,T-BRACHYURY expression,PSCs [6]; treatment with CP and BMP4,induced T-BRACHYURY expression quickly after one day
same,"mesoderm markers MIXL1, T/BRACHYURY, FGF4 and EOMES",PSCs [7]; 24 hours upon combined CP and BMP4 treatment,Upregulation
same,"pluripotency markers NANOG, UIF1 and SOX2","PSCs [7]; 24 hours upon combined CP and BMP4 treatment, data not shown",downregulated
O=C(Nc1cccc2cccnc12)c1ccc(N2C(=O)[C@@H]3[C@H](C2=O)[C@@H]2C=C[C@H]3C2)cc1 [IWR],distribution of CD31+/CD140b− and CD31−/CD140b+ cells,pluripotent stem cells [8],inverted distribution
"Cn1cc(C2=C(c3ccc(Cl)cc3Cl)C(=O)NC2=O)c2ccccc21 [SB216763, 3-(2,4-Dichlorophenyl)-4-(1-methyl-1H-indol-3-yl)-1H-pyrrole-2,5-dione, reference compound]",CD144+ cells,"[4]; 6 μM added to the priming medium, day 4 induction medium + VEGF-A 50 ng/ml",0.5%
same,CD144 expression,"human PSCs; day 5, flow cytometry",no CD144 expression was observed
same,TCF/LEF luciferase expression,[1]; concentration dependent administration,negligible
C[S+]([O-])CCCCN=C=S (centres unmarked) [Sulforaphane],"tube formation, number of nodes, length of tubes",SC-derived ECs,perturbed tube formation and reduced the number of nodes as well as the length of tubes
VEGF,"upregulation of endothelial markers CD34, PECAM1, CDH5 and vWF","PSCs [7]; within the first 24 hours upon VEGF, data not shown",more than 100 fold
B1,CD144+ cells,"[4]; 150 ng/ml added to the priming medium, day 4 induction medium + VEGF-A 50 ng/ml",0.8%
